# Tests used:
# eosinophil = details: concentration of 10 μM; cited from earlier work
# [1] = system: acute lung injury induced by endotoxin; details: pigs, cited from earlier work
# OVA-challenged mice = assay: Eosinophil infiltration in BAL fluid of OVA-challenged mice; assay type: in vivo, mouse; details: C57BL/6 mice, 1.6 mg/kg i.v. 24 hr and 1 hr before 10% OVA challenge, 48 hr
# Protocol: Female BALB/c mice and C57BL/6 mice (7 weeks old; 18-20 g) were obtained from Orientbion Inc. (Seoungnam, Korea). Sensitization and challenge were carried out as described previously with some modification (28). Briefly, female C57BL/6 mice (7 weeks old; 18-20 g) were immunized by intraperitoneal (i.p.) injection of 200 μg ovalbumin (OVA) emulsified in 2.5 mg of adjuvant aluminum hydroperoxide gel (alum) (Pierce, Rockford, Ill.). A second i.p. injection of 20 μg OVA adsorbed onto alum (2.5 mg) was administered 10 days later. After an additional 10 days, mice were exposed to an aerosol of 1% OVA in saline for 30 min daily on 3 consecutive days. On day 25, mice were finally challenged by provocation with 10% OVA aerosol. For inhibition experiments, sense or antisense BLT2 (1.6 mg/kg) was injected intravenously 24 h and then 1 h before the 10% OVA challenge. The mice were then killed on day 27 to assess asthmatic phenotypes. Antisense BLT2 oligonucleotide (5′-[…]-3′ (SEQ ID NO: 15)), sense BLT2 oligonucleotide (5′-[…]-3′ (SEQ ID NO: 16)).
# Inflammatory cells in the BAL fluid were collected by centrifugation (1,000 g for 3 min) and washed once in PBS. Cells were counted using a hemocytometer, and viability was assessed by trypan blue exclusion. […]
# LTB4 = LTB4 level in BAL fluid (EIA); assay type: in vivo, mouse; details: antisense BLT2 1.6 mg/kg i.v. 24 h and 1 h before 10% OVA; 48 h
# Protocol: Female BALB/c mice and C57BL/6 mice (7 weeks old; 18-20 g) were obtained from Orientbion Inc. (Seoungnam, Korea). Sensitization and challenge were carried out as described previously with some modification (28). Briefly, female C57BL/6 mice (7 weeks old; 18-20 g) were immunized by intraperitoneal (i.p.) injection of 200 μg ovalbumin (OVA) emulsified in 2.5 mg of adjuvant aluminum hydroperoxide gel (alum) (Pierce, Rockford, Ill.). A second i.p. injection of 20 μg OVA adsorbed onto alum (2.5 mg) was administered 10 days later. After an additional 10 days, mice were exposed to an aerosol of 1% OVA in saline for 30 min daily on 3 consecutive days. On day 25, mice were finally challenged by provocation with 10% OVA aerosol. For inhibition experiments, sense or antisense BLT2 (1.6 mg/kg) was injected intravenously 24 h and then 1 h before the 10% OVA challenge. The mice were then killed on day 27 to assess asthmatic phenotypes. […]
# Levels of LTB4 were quantified with the leukotriene B4 enzyme immunoassay (EIA) Biotrak™ system (Amersham Biosciences, UK). […] Substrate (tetramethylbenzidine) was then added, and the reaction was stopped by adding an acid solution and the color read at 450 nm in a spectrophotometer. […] Statistical significance of differences between groups was assessed by analysis of variance, and P<0.05 was considered significant.
# Rac = assay: Endogenous Rac expression in lung tissue (Western blot); assay type: in vivo, mouse; details: oligonucleotides injected into tail veins, mice sacrificed after 12 hr
# From the text: FIGS. 10a and 10b show activation of Rac in the lung tissue by OVA provocation and inhibition of endogenous Rac expression by antisense Rac oligonucleotide treatment. Lung samples were homogenized with micropestle and washed with PBS twice. FIG. 10a depicts Western blot analysis of Rac expression in mouse model of asthma. For membrane protein preparation, cells were suspended in Buffer A and cells were ruptured by passing through 21-G syringe. After ultracentrifugation, protein samples in pelleted membrane fraction were dissolved with buffer A containing 1% Triton X-100. FIG. 10b depicts Western blot analysis of Rac expression in mouse model of asthma administered with asRac. For whole cell lysate preparation, cells from the lung tissues of buffer, control Rac oligonucleotide or antisense Rac oligonucleotide injected mice were suspended with lysis buffer and incubated for 20 min. After centrifugation of the samples, protein quantification was carried out using Bradford reagent and Western blot analysis was performed.
# Oligonucleotides, from Genotech Co. (Korea), were synthesized with a phosphorothioate backbone to improve the resistance to endonuclease. The antisense oligonucleotide consisted of 17 nucleotides analogues to the 5′ end of the murine Rac mRNA sequence, which spans the translation initiation site. […]
molecule,measurement,setting,value
"CCc1cc(C(C)=O)c(O)cc1OCCCCCC(C)(C)c1nnn[nH]1 [LY255283, 1-[5-ethyl-2-hydroxy-4-[[6-methyl-6-(1H-tetrazol-5-yl)heptyl]oxy]phenyl]-ethanone, reference compound]",inhibition of eosinophil chemotaxis,eosinophil,80%
same,activation of neutrophils,[1]; endotoxin,limits activation of neutrophils
same,acute lung injury induced by endotoxin,[1],prevents acute lung injury
"antisense BLT2: Antisense BLT2 oligonucleotide 5′-GCTCAGTAGTGTCTCATTCC-3′ (SEQ ID NO: 15) (listed as DNA, chemistry not fully specified)",reduction of eosinophil infiltration in BAL fluids,OVA-challenged mice,~87%
same,suppression of the level of LTB4 in BAL fluid,LTB4,−72%
"antisense Rac: phosphorothioate 17-mer to the 5′ end of murine Rac mRNA, 5′-CACTTGATGGCCTGCAT-3′ (SEQ ID NO: 22) (listed as DNA, chemistry not fully specified)",endogenous expression of Rac in the lung tissues,Rac,inhibited

# Source: US9255272B2, “Use of inhibitors of leukotriene B4 receptor BLT2 for treating asthma” (Korea University Research & Business Foundation, priority 2007, dated 2016)
